{
  "source": "patent US20260226497A1",
  "about": "“TRANSGENIC MAIZE EVENT MON 87427” (Monsanto Technology LLC, priority 2009, published 2026)",
  "test_system": "event MON 87427 hybrids",
  "assay_type": "in vivo, maize",
  "details": "two successive sprays at 2.25 lb a.e./acre each",
  "source_text": "This illustrates that the F1 hybrid plants from event MON 87427 crosses are fully tolerant to glyphosate when used for weed control.",
  "data": [
    {"smiles": "O=C(O)CNCP(=O)(O)O", "note": "[glyphosate, N-phosphonomethylglycine]", "values": [
      {"measurement": "injury or male fertility compared with NK603 hybrid", "result": "no difference was observed in injury or male fertility"}
    ]}
  ]
}
